Experimental findings from patent publication US12319655B2, “RAF kinase inhibitors and methods of use thereof” (Deciphera Pharmaceuticals, LLC, priority 2021, dated 2025) are described below.

For one test, the system named is H2405 cells. As to the kind of experiment: H2405 Cell Proliferation Assay (1). The test is classed as cell-based. The conditions noted are these: Homo sapiens, NCI-H2405. The method, boiled down: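 Viability was read by resazurin reduction (ex 540 nm, em 600 nm; 5-6 h with 40 μL of 440 μM stock) after 67-72 h compound exposure at 37 °C.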
Test [1] deals with C-Raf kinase (SEQ. ID NO: 3) (Homo sapiens (Human), UniProt P04049, Y340D/Y341D). Description: Biochemical Assay for C-Raf (1). The settings on record: Table J, assay version (1); read-out: CRAF (1) IC50. The method, boiled down:
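IC50 values come from a four-parameter fit of percent inhibition, using the reaction rate over 4–5 h of a 6 h continuous 340 nm read at 30 °C. The enzyme mix was C-Raf 0.43 nM, MEK substrate 30.1 nM and ATP 1 mM, in a PK/LDH NADH-coupled format in Tris pH 7.5 with 1% DMSO.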

The subject of the next test is Miapaca-2 cells. As to the kind of experiment: MiaPaca-2 Cell Proliferation Assay (1). The test is classed as cell-based. The conditions noted are these: Homo sapiens, MIA PaCa-2, single agent, read-out: MiaPaca2 (1) IC50. Put shortly: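 Resazurin was added after compound exposure and incubated 5-6 h, then fluorescence read at 540 nm excitation and 600 nm emission to give IC50.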

Test [2] addresses B-Raf kinase (SEQ. ID NO: 2) (Homo sapiens (Human), UniProt P15056). Description: Biochemical Assay for B-Raf (1). The conditions noted are these: Table J, assay version (1); read-out: BRAF (1) IC50. The method, boiled down:
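IC50 derived by four-parameter sigmoidal fit of percent inhibition, normalised to uninhibited and reference-inhibitor controls, using reaction rates over 4–5 h. Coupled spectrophotometric readout (NADH loss at 340 nm, 6 h, 30° C.); 1 mM ATP, 30.1 nM MEK, 0.13 nM B-Raf, pH 7.5 Tris buffer, 1% DMSO.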

For orientation: IC50 means the midpoint of a concentration-inhibition curve.

C-Raf kinase (SEQ. ID NO: 3), sequence (P04049 307-648 Y340D/Y341D): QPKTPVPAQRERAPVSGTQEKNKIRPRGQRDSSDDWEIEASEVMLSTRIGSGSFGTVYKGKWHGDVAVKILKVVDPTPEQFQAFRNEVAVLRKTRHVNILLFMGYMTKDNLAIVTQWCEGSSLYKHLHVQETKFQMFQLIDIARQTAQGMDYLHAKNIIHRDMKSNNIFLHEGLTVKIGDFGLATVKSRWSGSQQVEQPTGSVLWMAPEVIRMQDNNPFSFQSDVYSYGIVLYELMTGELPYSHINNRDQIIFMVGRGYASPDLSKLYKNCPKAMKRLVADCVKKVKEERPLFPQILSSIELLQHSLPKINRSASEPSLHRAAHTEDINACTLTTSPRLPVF
B-Raf kinase (SEQ. ID NO: 2), sequence (P15056 416-766): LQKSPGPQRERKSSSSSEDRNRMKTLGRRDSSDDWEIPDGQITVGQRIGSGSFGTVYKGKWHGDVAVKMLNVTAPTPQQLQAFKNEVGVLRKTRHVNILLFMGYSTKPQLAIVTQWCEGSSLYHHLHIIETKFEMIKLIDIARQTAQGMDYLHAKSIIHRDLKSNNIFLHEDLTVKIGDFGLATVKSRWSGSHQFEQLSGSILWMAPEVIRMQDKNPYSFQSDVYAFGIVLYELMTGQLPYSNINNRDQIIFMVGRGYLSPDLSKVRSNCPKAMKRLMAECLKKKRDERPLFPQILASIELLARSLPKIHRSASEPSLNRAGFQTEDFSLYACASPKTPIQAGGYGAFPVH

With `Cc1ncc(NC(=O)c2cncc(C(F)F)c2)cc1-c1cccc(-c2cc(NC(=O)C3CC3)ncn2)c1` [Example 280], the IC50 with H2405 cells is 100 to 500 nM; in test [1], at most 100 nM; with Miapaca-2 cells it was 1000 to 10000 nM; in test [2], at most 100 nM.

With `CC(=O)Nc1cc(-c2cncc(-c3cc(NC(=O)c4ccnc(C(F)(F)F)c4)ccc3C)n2)ccn1` [Example 29], the IC50 in the test with H2405 cells was at most 100 nM; in test [1] it was at most 100 nM; in the test on Miapaca-2 cells, 1000 to 10000 nM; in test [2] it was at most 100 nM.

As to `Cc1nc(-c2ccnc(NC(=O)C3CC3)c2)cc(-c2cc(NC(=O)c3ccnc(C4CC4)c3)cnc2C)n1` [Example 287], the IC50 with H2405 cells is 500 to 1000 nM; in test [1] it was at most 100 nM; in the test with Miapaca-2 cells, 1000 to 10000 nM; in test [2], at most 100 nM.

Turning to `COC(=O)Nc1cc(-c2cc(-c3cc(NC(=O)c4ccnc(C(F)(F)F)c4)cnc3C)ccn2)ccn1` [Example 312], the IC50 in the test on H2405 cells was 100 to 500 nM; in test [1] it was at most 100 nM; in the test on Miapaca-2 cells, 1000 to 10000 nM; in test [2], at most 100 nM.

For the molecule `CNC(=O)c1cc(-c2cnnc(-c3cc(NC(=O)c4ccnc(C5CC5)c4)ccc3C)c2)ccn1` [Example 326], the figures for the IC50 (with H2405 cells; in test [1]; in test [2]) were 1000 to 10000 nM, at most 100 nM and 100 to 500 nM, respectively.

As to `CNC(=O)c1cc(-c2cnnc(-c3cc(NC(=O)c4ccc(Cl)c(OC)c4)cnc3C)c2)ccn1` [Example 322], the IC50 (with H2405 cells; in test [1]; in test [2]) was 1000 to 10000 nM throughout.

`COC(=O)Nc1cc(-c2cnnc(-c3cc(NC(=O)c4ccnc(C5CC5)c4)cnc3C)c2)ccn1` [Example 362]: the 50% inhibitory concentration (IC50) in the test on H2405 cells is 1000 to 10000 nM; in test [1], at most 100 nM; in test [2], 100 to 500 nM.

For the molecule `COC(=O)Nc1cc(-c2nccc(-c3cc(NC(=O)c4ccnc(C(C)(C)C#N)c4)c(F)cc3C)n2)ccn1` [Example 303], the IC50 (in the test on H2405 cells; in test [1]; in test [2]) was at most 100 nM each time.

On to `CNC(=O)c1cc(-c2cnnc(-c3cc(NC(=O)c4ccnc(C(F)F)c4)cnc3C)c2)ccn1` [Example 330], for which the values for the IC50 (in the test on H2405 cells; in test [1]; in test [2]) were 1000 to 10000 nM, 100 to 500 nM and 500 to 1000 nM, respectively.

Take `CNC(=O)c1cc(-c2cnnc(-c3cc(NC(=O)c4cn(C(C)(C)C)nn4)ccc3C)c2)ccn1` [Example 366]: the IC50 was in the range of 1000 to 10000 nM in the test on H2405 cells, 100 to 500 nM in test [1] and 100 to 500 nM in test [2].

On to `CNC(=O)c1cc(-c2cc(-c3cc(NC(=O)CCC(C)(C)C#N)ccc3C)ccn2)ccn1` [Example 357], for which the IC50 in the test with H2405 cells is 1000 to 10000 nM; in test [1], at most 100 nM; in test [2], 100 to 500 nM.

On to `Cc1ccc(NC(=O)c2cn(C(C)C)nn2)cc1-c1cc(-c2ccnc(NC(=O)C3CC3)c2)cnn1` [Example 320], for which the figures for the IC50 (in the test with H2405 cells; in test [1]; in test [2]) were 1000 to 10000 nM, at most 100 nM and at most 100 nM, respectively.

`Cc1ccc(NC(=O)c2ccnc(C(C)(C)C#N)c2)cc1-c1cc(-c2ccnc3[nH]ccc23)cnn1` [Example 369]: the half-maximal inhibitory concentration (IC50) in the test on H2405 cells is 500 to 1000 nM; in test [1], at most 100 nM; in test [2], at most 100 nM.

Take `Cc1ncc(NC(=O)c2cn(C(C)C)nn2)cc1-c1nccc(-c2ccnc(NC(=O)C3CC3)c2)n1` [Example 285]: the IC50 in the test with H2405 cells was 1000 to 10000 nM; in test [1], at most 100 nM; in test [2], at most 100 nM.

Regarding `CNC(=O)c1cc(-c2cc(-c3cc(NC(=O)COCC4CC4)ccc3C)ccn2)ccn1` [Example 358], the IC50 was 1000 to 10000 nM with H2405 cells, at most 100 nM in test [1] and at most 100 nM in test [2].

`COC(=O)Nc1cc(-c2cnnc(-c3cc(NC(=O)CN4CCCC4)cnc3C)c2)ccn1` [Example 359]: the IC50 (in the test on H2405 cells; in test [1]; in test [2]) was 1000 to 10000 nM in each case.

With `CNC(=O)c1cc(-c2cnnc(-c3cc(NC(=O)c4ccnc(C(C)(C)C#N)c4)cnc3C)c2)ccn1` [Example 316], the IC50 fell in the range of 1000 to 10000 nM with H2405 cells, 100 to 500 nM in test [1] and 500 to 1000 nM in test [2].
